Experimental data as given in US9615576B2, “Pesticidal compositions and processes related thereto” (Dow AgroSciences LLC, priority 2011, dated 2017).
Read-outs that look alike come from different tables or passages of the source.

Columns and labels:
[1] = test system: Corn Earworm (CEW) (Helicoverpa zea); assay: Bioassays on Corn Earworm (CEW), 128-well diet tray assay; assay type: in vivo; conditions: 168 h, read-out: CEW Rating (% mortality)
Method in brief: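 Second-instar larvae (one to five per well) placed on artificial diet treated with 50 μg/cm^2 compound in 90:10 acetone-water, dried; eight wells per compound. Held at 25° C, 14:10 light-dark, five to seven days; percent mortality averaged over wells.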

[2] = test system: Beet Armyworm (BAW) (Spodoptera exigua); assay: Bioassays on Beet Armyworm (BAW), 128-well diet tray assay; assay type: in vivo; conditions: 168 h, read-out: BAW Rating (% mortality)
Method in brief: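 Second-instar larvae (1–5 per well) on artificial diet surface-treated with 50 μg/cm^2 compound applied in 90:10 acetone-water and dried; eight wells per compound. Held 5–7 days at 25° C., 14:10 light-dark. Percent mortality scored per well and averaged over eight wells.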

[3] = 50 μg/cm^2 test compound on artificial diet, second instar larvae, 25° C., five to seven days, average of eight wells

Compound | mortality at 50 µg/cm2 [1, 3] [%] | mortality at 50 µg/cm2 [2, 3] [%] | mortality at 50 µg/cm2 [1] [%] | mortality at 50 µg/cm2 [2] [%]
Cc1cc(/C=C/C(c2cc(Cl)cc(Cl)c2)C(F)(F)F)ccc1C(=O)NCC(=O)NCC(F)(F)F (stereo not shown) [AC24] | 50 to 100 | 50 to 100 |  | 
O=C(NCc1ccc(Cl)nc1)c1ccc(/C=C/C(c2cc(Cl)cc(Cl)c2)C(F)(F)F)cc1F (stereo not shown) [AC49] | 50 to 100 | 50 to 100 |  | 
O=C(NC1CS(=O)(=O)C1)c1ccc(/C=C/C(c2cc(Cl)c(Cl)c(Cl)c2)C(F)(F)F)cc1Br (stereo not shown) [AC33] | 50 to 100 | 50 to 100 |  | 
CN(C)C(=O)c1ccc(/C=C/C(c2cc(Cl)cc(Cl)c2)C(F)(F)F)cc1 (stereo not shown) [AC3] | 0 | 0 |  | 
O=C(CC(F)(F)F)NCc1ccc(/C=C/C(c2cc(Cl)c(Cl)c(Cl)c2)C(F)(F)F)cc1F (stereo not shown) [CC27] | 50 to 100 | 50 to 100 |  | 
FC(F)(F)C(/C=C/c1ccc(-n2cncn2)cc1)c1cccc(Cl)c1Cl (stereo not shown) [DC14] | 0 | 0 |  | 
N#Cc1cc(/C=C/C(c2ccc(Cl)c(Cl)c2)C(F)(F)F)ccc1-n1cncn1 (stereo not shown) [DC28] | 50 to 100 | 50 to 100 |  | 
Cc1cc(/C=C/C(c2cc(Cl)cc(Cl)c2)C(F)(F)F)ccc1C(=O)NCc1ccc(Cl)cc1 (stereo not shown) [AC48] | 50 to 100 | 50 to 100 |  | 
Cc1cc(/C=C\C(c2cc(Cl)cc(Cl)c2)C(F)(F)F)ccc1C(=O)NCC(=O)NC1CC1 (stereo not shown) [AC93] | 0 | 50 to 100 |  | 
O=C(CC(F)(F)F)NCc1ccc(/C=C\C(c2cc(Cl)c(Cl)c(Cl)c2)C(F)(F)F)cc1 (stereo not shown) [CC54, (Z)-3,3,3-trifluoro-N-(4-(4,4,4-trifluoro-3-(3,4,5-trichlorophenyl)but-1-en-1-yl)benzyl)propanamide] | 50 to 100 | 50 to 100 |  | 
O=C(c1ncnn1-c1ccc(/C=C/C(c2cc(Cl)cc(Cl)c2)C(F)(F)F)cc1)C1CC1 (stereo not shown) [DC26] | 0 | 0 |  | 
Cc1cc(/C=C/C(c2cc(Cl)c(Cl)c(Cl)c2)C(F)(F)F)ccc1C(=O)NCc1cnc(Cl)s1 (stereo not shown) [AC26] | 50 to 100 | 50 to 100 |  | 
CS(=O)(=O)c1ncnn1-c1ccc(/C=C/C(c2cc(Cl)cc(Cl)c2)C(F)(F)F)cc1 (stereo not shown) [DC27] | 0 | 0 |  | 
FC(F)(F)C(/C=C/c1ccc(-n2cncn2)c(Br)c1)c1cc(Cl)cc(Cl)c1 (stereo not shown) [DC47] | 50 to 100 | 50 to 100 |  | 
O=C(CC(F)(F)F)NC1CCc2cc(/C=C/C(c3cc(Cl)c(F)c(Cl)c3)C(F)(F)F)ccc21 (stereo not shown) [BC8] | 50 to 100 | 50 to 100 |  | 
Cc1cc(/C=C/C(c2cc(Cl)cc(Cl)c2)C(F)(F)F)ccc1C(=O)NCC(=O)NNC(=O)C1CC1 (stereo not shown) [AC47] | 0 | 0 |  | 
O=C(Cc1ccc(Cl)nc1)NCc1ccc(/C=C/C(c2cc(Cl)c(Cl)c(Cl)c2)C(F)(F)F)cc1Cl (stereo not shown) [CC14] | 0 | 50 to 100 |  | 
O=C(NCc1ccc(/C=C/C(c2cc(Cl)c(F)c(Cl)c2)C(F)(F)F)cc1Cl)C1CC1 (stereo not shown) [CC15] | 50 to 100 | 50 to 100 |  | 
O=C(CC(F)(F)F)NCc1ccc(/C=C/C(c2cc(Cl)c(Cl)c(Cl)c2)C(F)(F)F)cc1 (stereo not shown) [CC6] | 50 to 100 | 50 to 100 |  | 
O=C(NC1CS(=O)(=O)C1)c1ccc(/C=C/C(c2cc(Cl)c(Cl)c(Cl)c2)C(F)(F)F)cc1Cl (stereo not shown) [AC30] | 50 to 100 | 50 to 100 |  | 
Cc1cc(/C=C/C(c2cc(Cl)cc(Cl)c2)C(F)(F)F)ccc1C(=O)NC1CS(=O)(=O)C1 (stereo not shown) [AC13] | 50 to 100 | 50 to 100 |  | 
O=C(NCc1ccc(/C=C/C(c2cc(Cl)c(Cl)c(Cl)c2)C(F)(F)F)cc1Cl)Oc1ccccc1Cl (stereo not shown) [CC40] |  |  | 50 to 100 | 0
O=C(CC(F)(F)F)NCc1ccc(/C=C/C(c2cc(Cl)c(Cl)c(Cl)c2)C(F)(F)F)cc1Br (stereo not shown) [CC25] | 50 to 100 | 50 to 100 |  | 
Fc1ccc(C(/C=C/c2ccc(-n3cncn3)cc2)C(F)(F)F)cc1 (stereo not shown) [DC7] | 0 | 50 to 100 |  | 
O=C(NCc1ccc(/C=C/C(c2cc(Cl)c(Cl)c(Cl)c2)C(F)(F)F)cc1)C1CC1 (stereo not shown) [CC5] | 50 to 100 | 50 to 100 |  | 

Compound | mortality at 50 µg/cm2 [1, 3] [%] | mortality at 50 µg/cm2 [2, 3] [%] | mortality at 50 µg/cm2 [1] [%] | mortality at 50 µg/cm2 [2] [%]
O=C(CC(F)(F)F)NC1CCc2cc(/C=C/C(c3cc(Cl)c(Cl)c(Cl)c3)C(F)(F)F)ccc21 (stereo not shown) [BC4, (E)-3,3,3-trifluoro-N-(5-(4,4,4-trifluoro-3-(3,4,5-trichlorophenyl)but-1-enyl)-2,3-dihydro-1H-inden-1-yl)propanamide] | 50 to 100 | 50 to 100 |  | 
O=C(NCc1ccc(/C=C/C(c2cc(Cl)c(Cl)c(Cl)c2)C(F)(F)F)cc1Br)C1CC1 (stereo not shown) [CC26] | 0 | 50 to 100 |  | 
O=C(CC(F)(F)F)NCc1ccc(/C=C/C(c2cc(Cl)c(Cl)c(Cl)c2)C(F)(F)F)cc1C(F)(F)F (stereo not shown) [CC24] | 50 to 100 | 50 to 100 |  | 
N#Cc1cc(/C=C/C(c2cc(Cl)cc(Cl)c2)C(F)(F)F)ccc1-n1cnc([N+](=O)[O-])n1 (stereo not shown) [DC37] | 50 to 100 | 50 to 100 |  | 
CCc1cc(/C=C/C(c2cc(Cl)c(F)c(Cl)c2)C(F)(F)F)ccc1C(=O)NC1CS(=O)(=O)C1 (stereo not shown) [AC86] | 50 to 100 | 50 to 100 |  | 
O=C(NCc1ccc(/C=C/C(c2cc(Cl)cc(Cl)c2)C(F)(F)F)cc1)C1CC1 (stereo not shown) [CC2] | 50 to 100 | 50 to 100 |  | 
Cc1cc(/C=C/C(c2cc(Cl)c(Cl)c(Cl)c2)C(F)(F)F)ccc1C(=O)NC1CS(=O)(=O)C1 (stereo not shown) [AC25] | 50 to 100 | 50 to 100 |  | 
O=C(NC1CCN(C(=O)CC(F)(F)F)CC1)c1ccc(/C=C/C(c2cc(Cl)c(Cl)c(Cl)c2)C(F)(F)F)cc1Br (stereo not shown) [AC104, (E)-2-bromo-4-(4,4,4-trifluoro-3-(3,4,5-trichlorophenyl)but-1-en-1-yl)-N-(1-(3,3,3-trifluoropropanoyl)piperidin-4-yl)benzamide] | 50 to 100 | 50 to 100 |  | 
O=C(NNc1ccc(/C=C/C(c2cc(Cl)c(Cl)c(Cl)c2)C(F)(F)F)cc1)C1CC1 (stereo not shown) [CC50, (E)-N′-(4-(4,4,4-trifluoro-3-(3,4,5-trichlorophenyl)but-1-en-1-yl)phenyl)cyclopropanecarbohydrazide] | 50 to 100 | 50 to 100 |  | 
O=C(NC1CCN(CCO)CC1)c1ccc(/C=C/C(c2cc(Cl)c(Cl)c(Cl)c2)C(F)(F)F)cc1Br (stereo not shown) [AC109, (E)-2-bromo-N-(1-(2-hydroxyethyl)piperidin-4-yl)-4-(4,4,4-trifluoro-3-(3,4,5-trichlorophenyl)but-1-en-1-yl)benzamide] | 0 | 0 |  | 
Cc1cc(/C=C/C(c2cc(Cl)cc(Cl)c2)C(F)(F)F)ccc1-n1cncn1 (stereo not shown) [DC62] | 50 to 100 | 50 to 100 |  | 
O=C(CNC(=O)c1ccc(/C=C/C(c2cc(F)c(Cl)c(F)c2)C(F)(F)F)cc1Br)NCC(F)(F)F (stereo not shown) [AC102] | 50 to 100 | 0 |  | 
O=C(CC(F)(F)F)NCc1ccc(/C=C/C(c2cc(Cl)cc(Cl)c2)C(F)(F)F)cc1Cl (stereo not shown) [CC9] | 50 to 100 | 50 to 100 |  | 
CN1CCC(NC(=O)c2ccc(/C=C/C(c3cc(Cl)c(Cl)c(Cl)c3)C(F)(F)F)cc2Br)CC1 (stereo not shown) [AC106, (E)-2-bromo-N-(1-methylpiperidin-4-yl)-4-(4,4,4-trifluoro-3-(3,4,5-trichlorophenyl)but-1-en-1-yl)benzamide] | 50 to 100 | 50 to 100 |  | 
FC(F)(F)C(/C=C/c1ccc(-n2cncn2)cc1Cl)c1cc(Cl)c(Cl)c(Cl)c1 (stereo not shown) [DC66] | 50 to 100 | 50 to 100 |  | 
Cc1cc(/C=C\C(c2cc(Cl)cc(Cl)c2)C(F)(F)F)ccc1C(=O)NCc1ccc(Cl)nc1 (stereo not shown) [AC94] | 0 to 50 | 0 |  | 
O=C(CNC(=O)c1ccc(/C=C/C(c2cc(Cl)c(F)c(Cl)c2)C(F)(F)F)cc1[N+](=O)[O-])NCC(F)(F)F (stereo not shown) [AC98] | 50 to 100 | 50 to 100 |  | 
Cc1cc(/C=C/C(c2cc(Cl)c(F)c(Cl)c2)C(F)(F)F)ccc1C(=O)NC1CCOCC1 (stereo not shown) [AC52] | 50 to 100 | 50 to 100 |  | 
Cc1cc(/C=C/C(c2cc(Cl)c(F)c(Cl)c2)C(F)(F)F)ccc1C(=O)NCc1cc(Cl)ccn1 (stereo not shown) [AC77] | 50 to 100 | 50 to 100 |  | 
C=CCNC(=O)CNC(=O)c1ccc(/C=C/C(c2cc(Cl)c(Cl)c(Cl)c2)C(F)(F)F)cc1Br (stereo not shown) [AC111] | 50 to 100 | 50 to 100 |  | 
O=C(CNC(=O)c1ccc(/C=C/C(c2cc(Cl)cc(Cl)c2)C(F)(F)F)cc1F)NCC(F)(F)F (stereo not shown) [AC62] | 50 to 100 | 50 to 100 |  | 
CN(C)c1ccc(CNC(=O)c2ccc(/C=C/C(c3cc(Cl)c(Cl)c(Cl)c3)C(F)(F)F)cc2Br)cn1 (stereo not shown) [AC96] | 0 | 0 |  | 
O=C(NCCc1ccc(Cl)nc1)c1ccc(/C=C/C(c2cc(Cl)c(Cl)c(Cl)c2)C(F)(F)F)cc1Br (stereo not shown) [AC113] | 50 to 100 | 0 to 50 |  | 
CCC(=O)NCc1ccc(/C=C/C(c2cc(Cl)cc(Cl)c2)C(F)(F)F)cc1 (stereo not shown) [CC4] | 0 to 50 | 50 to 100 |  | 
N#CCN1CCC(NC(=O)c2ccc(/C=C/C(c3cc(Cl)c(Cl)c(Cl)c3)C(F)(F)F)cc2Br)CC1 (stereo not shown) [AC107] | 50 to 100 | 0 to 50 |  | 
